Source: patent US9133235B2, “Macrocyclic antagonists of the motilin receptor for treatment of gastrointestinal dysmotility disorders” (Ocera Therapeutics, Inc., priority 2006, dated 2015)
pKi: −log10 of the molar value. Like-named read-outs stand apart in the source and are kept apart here.

Columns and labels:
human motilin receptor = human motilin receptor (Homo sapiens, UniProt O43193); test: Competitive radioligand binding assay (motilin receptor); set-up: purchased PerkinElmer (SignalScreen) 6110544; host or cells: CHO cells, stably transfected; membranes
Outline: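 Membranes from CHO cells stably expressing human motilin receptor were incubated 2 h at room temperature with [125I]-motilin (0.04-0.06 nM final) and compound (0.0050–10 μM) in Tris-HCl pH 7.4, MgCl2, EDTA, 0.1% BSA. Filter-bound counts were measured; 1 μM motilin defined non-specific binding; variable-slope non-linear regression.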

[1] = test system: strips of rabbit duodenum; test: Rabbit duodenum contractility assay; conditions: pA2 from Schild plot, motilin dose response after 15 minute incubation
Procedure: D. Rabbit Duodenum Contractility Assay
Evaluation of compounds of the invention for ex vivo activity was conducted on strips of rabbit duodenum according to literature methods. (Van Assche, G.; Depoortere, I.; Thijs, T.; Janssens, J. J.; Peeters, T. L. Eur. J. Pharmacol. 1997, 337, 267-274; Matthijs, G.; Peeters, T. L.; Vantrappen, G. Naunyn-Schmiedeberg's Arch. Pharmacol. 1989, 339, 332-339.) Related methods can also be employed for this type of study. (Tomomasa, T.; Yagi, H.; Kimura, S.; Snape, W. J., Jr.; Hyman, P. E. Pediatric Res. 1989, 26, 458-461; Takanishi, H.; Yogo, K.; Ozaki, M.; Akima, M.; Koga, H.; Nabata, H. J. Pharm. Exp. Ther. 1995, 273, 624-628.)
Duodenal segments were vertically suspended in organ chambers of 10 mL filled with Krebs buffer and connected to an isotonic force transducer, with a preload of 1 g. After a stabilization period, the muscle strips were challenged with 10^−4 M acetylcholine and washed. This was repeated until a stable maximal contraction was obtained (2-3 times), with an interval of at least 20 minutes.
After a stable base line was reached, test compounds were added to the bath. After a 15 minute incubation, a dose response to motilin was recorded by adding logarithmically increasing concentrations of motilin to the bath (final concentration 10^−9 to 10^−6 M). A blank experiment (no test compound present) was also performed. At the end of the dose response curve, a supramaximal dose of acetylcholine (10^−4 M) was given and this response was used as a reference (100% contraction).
The results of experiments at different concentrations of test compound were combined and analyzed to derive the pA2 value from the Schild plot.

[2] = [125I]-motilin competition, membranes of CHO cells with human motilin receptor, read-out: Ki

Sequence of human motilin receptor (O43193 whole entry): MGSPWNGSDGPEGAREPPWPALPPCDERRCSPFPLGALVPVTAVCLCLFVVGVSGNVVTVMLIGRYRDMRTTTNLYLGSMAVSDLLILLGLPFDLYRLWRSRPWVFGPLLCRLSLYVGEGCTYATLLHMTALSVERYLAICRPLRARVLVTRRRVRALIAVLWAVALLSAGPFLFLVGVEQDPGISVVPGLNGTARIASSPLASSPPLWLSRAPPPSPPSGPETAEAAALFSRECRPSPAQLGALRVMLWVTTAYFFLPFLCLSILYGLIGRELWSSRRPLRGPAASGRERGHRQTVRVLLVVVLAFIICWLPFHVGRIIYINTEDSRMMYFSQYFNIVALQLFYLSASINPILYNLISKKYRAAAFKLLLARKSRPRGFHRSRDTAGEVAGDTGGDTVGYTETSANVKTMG

pKi (human motilin receptor; Table 7, read-out: Binding Ki)	pKi (human motilin receptor; [2])	SMILES	Contractile Potency (pA2) [1]
≥ 8.00	–	CC(C)[C@H]1NC(=O)[C@@H](Cc2cccc(C(F)(F)F)c2)NCCOc2ccccc2CCCNC(=O)[C@H](CN(C)C)NC1=O [Compound 502]	7.92
≥ 8.00	≥ 8.00	CCC[C@@H]1NC(=O)[C@@H](C(C)C)NC(=O)[C@@H](Cc2cccc(F)c2)N[C@@H](C)COc2ccccc2CCCNC1=O [Compound 551]	8.29
–	≥ 8.00	CCC[C@@H]1NC(=O)[C@@H](C(C)C)NC(=O)[C@@H](Cc2ccc(O)c(Cl)c2)N[C@@H](C)COc2ccccc2CCCNC1=O [Compound 552]	–
≥ 8.00	≥ 8.00	CCC[C@@H]1NC(=O)[C@@H](C(C)C)NC(=O)[C@@H](Cc2ccc(O)c(C(C)(C)C)c2)NCCOc2ccccc2CCCNC1=O [Compound 553]	8.71
